Reference: PubChem BioAssay (NCI)
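Step 1: Grow cells in 96-well plates. Step 2: Expose to compound for 48 hours at 5 concentrations. Step 3: Interpolate endpoints linearly; if unreached, use highest concentration. Here, GI50 denotes the concentration required for 50% inhibition of growth. TGI marks complete inhibition of growth.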

Tests used:
Assay in all cases: NCI-60 cell line screen, 48 h
[1] = test system: NCI-H226 lung
[2] = test system: HOP-92 NSCLC
[3] = test system: COLO 205 colon
[4] = test system: HT29 colon
[5] = test system: SF-268 CNS
[6] = test system: DU-145 prostate
[7] = test system: SK-MEL-28 melanoma
[8] = test system: UO-31 renal
[9] = test system: 786-0 renal
[10] = test system: HCC-2998 colon
[11] = test system: NCI-H522 lung
[12] = test system: TK-10 renal
[13] = test system: MALME-3M melanoma
[14] = test system: T-47D breast
[15] = test system: HOP-62 NSCLC
[16] = test system: MDA-MB-435
[17] = test system: NCI/ADR-RES ovarian
[18] = test system: SNB-19 CNS
[19] = test system: HL-60(TB) leukemia
[20] = test system: UACC-62 melanoma
[21] = test system: UACC-257 melanoma
[22] = test system: MCF7 breast
[23] = test system: LOX IMVI melanoma
[24] = test system: HS 578T breast
[25] = test system: RPMI-8226 leukemia
[26] = test system: OVCAR-5 ovarian
[27] = test system: OVCAR-3 ovarian
[28] = test system: PC-3 prostate
[29] = test system: U251 CNS
[30] = test system: SK-MEL-2 melanoma
[31] = test system: SN12C renal
[32] = test system: SR leukemia
[33] = test system: M14 melanoma
[34] = test system: BT-549 breast
[35] = test system: MDA-MB-468 breast
[36] = test system: SF-539 CNS
[37] = test system: A498 renal
[38] = test system: ACHN renal
[39] = test system: NCI-H23 lung
[40] = test system: KM12 colon
[41] = test system: SK-MEL-5 melanoma
[42] = test system: CCRF-CEM leukemia
[43] = test system: CAKI-1 renal
[44] = test system: OVCAR-4 ovarian
[45] = test system: EKVX NSCLC
[46] = test system: OVCAR-8 ovarian
[47] = test system: K-562 leukemia
[48] = test system: NCI-H460 lung
[49] = test system: IGROV1 ovarian
[50] = test system: MOLT-4 leukemia
[51] = test system: A549 NSCLC
[52] = test system: SF-295 CNS
[53] = test system: HCT-15 colon
[54] = test system: HCT-116 colon
[55] = test system: SW-620 colon
[56] = test system: SK-OV-3 ovarian
[57] = test system: MDA-MB-231 breast
[58] = test system: RXF 393 renal

COc1ccc(C(=O)/C=C/c2cccc(Cl)c2)cc1S(N)(=O)=O
GI50 [1]: 2.83 µM
TGI [1]: 11.9 µM
GI50 [2]: 2.28 µM
TGI [2]: 18.6 µM
GI50 [3]: 1.81 µM
TGI [3]: 3.41 µM
GI50 [4]: 1.7 µM
TGI [4]: 3.4 µM
GI50 [5]: 3.27 µM
TGI [5]: 13 µM
GI50 [6]: 3.52 µM
TGI [6]: 12.2 µM
GI50 [7]: 2.78 µM
TGI [7]: 9.4 µM
GI50 [8]: 1.29 µM
TGI [8]: 2.73 µM
GI50 [9]: 1.57 µM
TGI [9]: 3.49 µM
GI50 [10]: 1.6 µM
TGI [10]: 3.06 µM
GI50 [11]: 1.63 µM
TGI [11]: 3.22 µM
GI50 [12]: 2.49 µM
TGI [12]: 10.5 µM
GI50 [13]: 3.56 µM
TGI [13]: 15.1 µM
GI50 [14]: 2.14 µM
TGI [14]: 6.68 µM
GI50 [15]: 2.2 µM
TGI [15]: 6.43 µM
GI50 [16]: 3.2 µM
TGI [16]: 12.1 µM
GI50 [17]: 2.29 µM
TGI [17]: 6.48 µM
GI50 [18]: 3.13 µM
TGI [18]: 12.4 µM
GI50 [19]: 1.9 µM
TGI [19]: 5.72 µM
GI50 [20]: 1.98 µM
TGI [20]: 5.51 µM
GI50 [21]: 5.53 µM
TGI [21]: 18.9 µM
GI50 [22]: 1.97 µM
TGI [22]: 6.99 µM
GI50 [23]: 1.3 µM
TGI [23]: 2.57 µM
GI50 [24]: 10.7 µM
TGI [24]: 50.9 µM
GI50 [25]: 2.28 µM
TGI [25]: 6.67 µM
GI50 [26]: 1.87 µM
TGI [26]: 4.76 µM
GI50 [27]: 1.55 µM
TGI [27]: 3.39 µM
GI50 [28]: 2.23 µM
TGI [28]: 6.18 µM
GI50 [29]: 1.36 µM
TGI [29]: 2.69 µM
GI50 [30]: 12.9 µM
TGI [30]: 26.2 µM
GI50 [31]: 1.56 µM
TGI [31]: 3.64 µM
GI50 [32]: 0.848 µM
TGI [32]: 4.9 µM
GI50 [33]: 2.13 µM
TGI [33]: 6.93 µM
GI50 [34]: 1.65 µM
TGI [34]: 4.18 µM
GI50 [35]: 1.41 µM
TGI [35]: 2.93 µM
GI50 [36]: 1.75 µM
TGI [36]: 3.78 µM
GI50 [37]: 16.3 µM
TGI [37]: 30.5 µM
GI50 [38]: 1.75 µM
TGI [38]: 3.23 µM
GI50 [39]: 1.78 µM
TGI [39]: 3.5 µM
GI50 [40]: 1.61 µM
TGI [40]: 3.75 µM
GI50 [41]: 3.18 µM
TGI [41]: 12.6 µM
GI50 [42]: 3.11 µM
TGI [42]: 8.69 µM
GI50 [43]: 2.4 µM
TGI [43]: 9.07 µM
GI50 [44]: 3.58 µM
TGI [44]: 14.3 µM
GI50 [45]: 4.16 µM
TGI [45]: 16.7 µM
GI50 [46]: 2.81 µM
TGI [46]: 11.7 µM
GI50 [47]: 2.13 µM
TGI [47]: > 100 µM
GI50 [48]: 3.34 µM
TGI [48]: 11.2 µM
GI50 [49]: 2.48 µM
TGI [49]: 9.06 µM
GI50 [50]: 2.38 µM
TGI [50]: 6.15 µM
GI50 [51]: 2.5 µM
TGI [51]: 10.2 µM
GI50 [52]: 2.24 µM
TGI [52]: 7.94 µM
GI50 [53]: 1.14 µM
TGI [53]: 2.59 µM
GI50 [54]: 1.21 µM
TGI [54]: 2.52 µM
GI50 [55]: 1.68 µM
TGI [55]: 3.53 µM
GI50 [56]: 6.24 µM
TGI [56]: 19.1 µM
GI50 [57]: 2.26 µM
TGI [57]: 5.9 µM
GI50 [58]: 1.55 µM
TGI [58]: 3.08 µM

O=C(Nc1ccc(F)cc1)Nc1nc2ccc([N+](=O)[O-])cc2s1
GI50 [1]: 3.34 µM
TGI [1]: 11.7 µM
GI50 [2]: 2.59 µM
TGI [2]: 7.13 µM
GI50 [3]: 2.1 µM
TGI [3]: 3.97 µM
GI50 [4]: 3.42 µM
TGI [4]: 11 µM
GI50 [5]: 2.78 µM
TGI [5]: 11.3 µM
GI50 [6]: 3.94 µM
TGI [6]: 14 µM
GI50 [7]: 3 µM
TGI [7]: 11 µM
GI50 [9]: 3.07 µM
TGI [9]: 11.5 µM
GI50 [10]: 3.56 µM
TGI [10]: 12.5 µM
GI50 [11]: 2.37 µM
TGI [11]: 7.56 µM
GI50 [12]: 3.29 µM
TGI [12]: 12 µM
GI50 [13]: 1.96 µM
TGI [13]: 5.38 µM
GI50 [14]: 2.58 µM
TGI [14]: 7.68 µM
GI50 [15]: 3.19 µM
TGI [15]: 11.8 µM
GI50 [16]: 3.18 µM
TGI [16]: 11.3 µM
GI50 [17]: 2.85 µM
TGI [17]: 9.36 µM
GI50 [18]: 3.21 µM
TGI [18]: 12.2 µM
GI50 [19]: 1.97 µM
TGI [19]: 4.67 µM
GI50 [20]: 2.62 µM
TGI [20]: 9.22 µM
GI50 [21]: 2.27 µM
TGI [21]: 6.48 µM
GI50 [22]: 2.51 µM
TGI [22]: 8.65 µM
GI50 [23]: 3.58 µM
TGI [23]: 12.8 µM
GI50 [24]: 2.6 µM
TGI [24]: 8.28 µM
GI50 [25]: 1.92 µM
TGI [25]: 5.04 µM
GI50 [26]: 3.45 µM
TGI [26]: 12.9 µM
GI50 [27]: 3.45 µM
TGI [27]: 12.1 µM
GI50 [28]: 3.48 µM
TGI [28]: 12.3 µM
GI50 [29]: 3.3 µM
TGI [29]: 11.3 µM
GI50 [31]: 2.59 µM
TGI [31]: 8.12 µM
GI50 [32]: 1.86 µM
TGI [32]: 5.02 µM
GI50 [33]: 2.7 µM
TGI [33]: 10.7 µM
GI50 [34]: 1.95 µM
TGI [34]: 5.03 µM
GI50 [35]: 2.36 µM
TGI [35]: 6.75 µM
GI50 [36]: 2.59 µM
TGI [36]: 6.91 µM
GI50 [37]: 2.26 µM
TGI [37]: 6.46 µM
GI50 [38]: 3.09 µM
TGI [38]: 9.82 µM
GI50 [39]: 2.45 µM
TGI [39]: 6.21 µM
GI50 [40]: 3.05 µM
TGI [40]: 10.5 µM
GI50 [41]: 1.73 µM
TGI [41]: 3.3 µM
GI50 [42]: 2.61 µM
TGI [42]: 10.5 µM
GI50 [43]: 2.96 µM
TGI [43]: 10.7 µM
GI50 [44]: 3.3 µM
TGI [44]: 13.2 µM
GI50 [45]: 2.9 µM
TGI [45]: 10.3 µM
GI50 [46]: 3.42 µM
TGI [46]: 11.9 µM
GI50 [47]: 3.03 µM
TGI [47]: 10.4 µM
GI50 [48]: 2.89 µM
TGI [48]: 9.77 µM
GI50 [49]: 3.93 µM
TGI [49]: 14.5 µM
GI50 [50]: 2.41 µM
TGI [50]: 6.77 µM
GI50 [51]: 2.75 µM
TGI [51]: 11.6 µM
GI50 [52]: 2.04 µM
TGI [52]: 5.27 µM
GI50 [53]: 2.73 µM
TGI [53]: 10.2 µM
GI50 [54]: 2.92 µM
TGI [54]: 10.4 µM
GI50 [55]: 3.41 µM
TGI [55]: 12.7 µM
GI50 [56]: 2.14 µM
TGI [56]: 6.98 µM
GI50 [58]: 2.65 µM
TGI [58]: 8.72 µM
